Measured values: patent publication US12345718B2, “Method for determining the haemoglobin content of an erythroid cell” (UNIVERSITÉ PARIS EST CRÉTEIL VAL DE MARNE, priority 2016, dated 2025)
“And” between values parts separate entries of the source, which are not always exact repeats. Equal entries are not always repeated.

What was measured:
HbF [1] = assay: Mean HbF percentage (% HbF) by HPLC in SS patients before and during treatment with hydroxyurea
[2] = Complete blood count / biological data of SS patients during treatment with hydroxyurea; assay type: in vivo, human
HbF [3] = assay: HbF content of each red blood cell by flow cytometry (HbF distribution) during treatment with hydroxyurea
[4] = SS patients, M6 of hydroxyurea, median
[5] = 9 SS patients, D15-M3, mean (standard deviation)
[6] = 9 SS patients, ≥M6, mean (standard deviation)

## NC(=O)NO [hydroxyurea]
HbF [1]; after 6 months of treatment, SS patients
  increase of mean HbF percentage (% HbF): approximately 3 fold
HbF [1]; patient 2, M6
  % HbF: 25%
HbF [1]; patient 11, M 6
  % HbF: 18%
HbF [1]; patient 24, M 6
  % HbF: 18%
HbF [1]; total red blood cells, SS patients, D15-M1 of hydroxyurea, median
  % HbF: 4.9%
HbF [1]; total red blood cells, SS patients, M3-M4 of hydroxyurea, median
  % HbF: 7%
HbF [1]; total red blood cells, SS patients, M6 of hydroxyurea, median
  % HbF: 10.05%
[2]; [4]
  Hemoglobin: 9.35 g/dL
  MCHC: 34.40 g/dL
  MCHCo: 33.80 pg
  MCV: 100.50 femtoliter
[2]; after 6 months of treatment
  change in mean corpuscular hemoglobin concentration (MCHC): no significant variation
  change in mean corpuscular volume (MCV): significant increase
  change in mean hemoglobin content per red blood cell (MCHCo): significant increase
[2]; after 6 months of treatment, decrease not significant
  change in percentage of dense red blood cells: tendency to decrease
[2]; patient 11
  ASAT, relative difference in % D 0 vs M 6: −52% and −52.7%
  HbF, relative difference in % D 0 vs M 6: +14.5%
  LDH, relative difference in % D 0 vs M 6: −57% and −57.7%
  RETIC, relative difference in % D 0 vs M 6: −77% and −77.1%
[2]; patient 11, M 6
  ASAT (aspartate transaminase): 26 IU/l
  HbF: 7.1 g/dL
  LDH (lactate dehydrogenase): 383 IU/l
  MCHCo: 38.9 pg
[2]; patient 24
  ASAT, relative difference in % D 0 vs M 6: −9.4%
  HbF, relative difference in % D 0 vs M 6: +14.5%
  LDH, relative difference in % D 0 vs M 6: −40.5%
  RETIC, relative difference in % D 0 vs M 6: −57% and −57.2%
[2]; patient 24, M 6
  ASAT (aspartate transaminase): 29 IU/l
  HbF: 8.7 g/dL
  LDH (lactate dehydrogenase): 303 IU/l
  MCHCo: 42 pg
HbF [3]; [5]
  % RBCs with HbF [0; 2[ pg: 65.63 (25.13 % RBCs
  % RBCs with HbF [2; 4[ pg: 11.32 (6.80 % RBCs
  % RBCs with HbF [4; 6[ pg: 4.88 (2.90 % RBCs
  % RBCs with HbF [6; 8[ pg: 3.42 (2.52 % RBCs
  % RBCs with HbF [8; 10[ pg: 2.65 (2.18 % RBCs
  % RBCs with HbF [10; 15[ pg: 2.41 (2.73 % RBCs
  % RBCs with HbF [15; 20[ pg: 4.42 (4.27 % RBCs
  % RBCs with HbF ≥20 pg: 5.27 (8.56 % RBCs
HbF [3]; [6]
  % RBCs with HbF [0; 2[ pg: 53.17 (30.63 % RBCs
  % RBCs with HbF [2; 4[ pg: 15.05 (10.11 % RBCs
  % RBCs with HbF [4; 6[ pg: 6.70 (4.39 % RBCs
  % RBCs with HbF [6; 8[ pg: 3.92 (2.44 % RBCs
  % RBCs with HbF [8; 10[ pg: 2.72 (1.83 % RBCs
  % RBCs with HbF [10; 15[ pg: 2.55 (2.57 % RBCs
  % RBCs with HbF [15; 20[ pg: 4.29 (3.42 % RBCs
  % RBCs with HbF ≥20 pg: 11.60 (18.64 % RBCs
HbF [3]; D0 to M6
  variation of red blood cells with medium-high HbF contents: much lower variations
HbF [3]; after 6 months of treatment
  change in red blood cells having a very low HbF content: decreased greatly
  increase of red blood cells with HbF content greater than 20 pg: up to 3 fold
HbF [3]; after 6 months of treatment, heterogeneous before treatment in 8 patients, 9 analyzed
  patients in whom HbF follows a homogeneous distribution: 6 patients
HbF [3]; after 6 months of treatment, variation not significant
  increase of red blood cells with HbF content greater than 20 g: up to 3 times
HbF [3]; after ≥M4
  patients in whom HbF distribution becomes homogeneous: 5 patients
HbF [3]; between D0 and M6, 9 patients
  variation in red blood cells having the lowest HbF contents (0 and 2 pg), given as increase: approximately 25%
HbF [3]; patient 2, D15-M1
  % RBCs with HbF [0; 2[ pg: 9.21 % RBCs
  % RBCs with HbF [2; 4[ pg: 14.72 % RBCs
  % RBCs with HbF [4; 6[ pg: 9.52 % RBCs
  % RBCs with HbF [6; 8[ pg: 8.47 % RBCs
  % RBCs with HbF [8; 10[ pg: 7.35 % RBCs
  % RBCs with HbF [10; 15[ pg: 9.03 % RBCs
  % RBCs with HbF [15; 20[ pg: 14.27 % RBCs
  % RBCs with HbF ≥20 pg: 27.43 % RBCs
HbF [3]; patient 2, M3-M4
  % RBCs with HbF [0; 2[ pg: 5.29 % RBCs
  % RBCs with HbF [2; 4[ pg: 8.62 % RBCs
  % RBCs with HbF [4; 6[ pg: 10.61 % RBCs
  % RBCs with HbF [6; 8[ pg: 10.39 % RBCs
